Tests used:
[1] = test system: B16; experiment: Effective dose against B16 melanoma cells in cytotoxicity assay; format: functional; conditions: Mus musculus, read-out: ED50 (the source's name)
[2] = test system: B16; experiment: Effective dose against B16 melanoma cells in microtubule assembly assay; format: functional; conditions: Mus musculus, read-out: ED50 (the source's name)

CC(=O)O[C@H]1C(=O)[C@@]2(C)[C@H]([C@H](OC(=O)c3ccccc3)[C@]3(O)C[C@H](OC(=O)[C@H](O)[C@@H](NC(=O)c4ccccc4)c4ccccc4)C(C)=C1C3(C)C)[C@]1(OC(C)=O)CO[C@@H]1C[C@@H]2O [PACLITAXEL]
EC50 [1]: 27 nM
EC50 [2]: 1000 nM
